Source: US11524040B2, “Composition for the treatment of acne” (priority 2020, dated 2022)

Tests used:
[1] = tested on: Tumor necrosis factor (TNF-α); test: TNF-α production in human primary sebocytes; type: cell-based; details: human primary sebocytes in vitro; CBD isolate at same concentration as present in the invention
Procedure: (§1) In a study using human primary keratinocytes, two formulations were analyzed, Natural Blemish Light Lotion (NB) and Natural Blemish OTC Lotion (OTC) for unique properties. All the following experiments include a 24-hour treatment of the finished products used in the dilutions shown and were analyzed by quantitative polymerase chain reaction (qPCR).
(§2) Because sebum production is a major factor in the pathophysiology of acne vulgaris, experiments were performed using human primary sebocytes isolated from the eye area. The main function of sebocytes is considered to be the production of lipids to moisturize the skin. However, it recently became apparent that sebocytes release chemokines and cytokines and respond to proinflammatory stimuli as well as the presence of bacteria. (Attii M, Lovászi M, Garzorz N, Atenhan A, Quaranta M, Lauffer F, Konstantinow A, Küpper M, Zouboulis C C, Kemeny L, Eyerich K, Schmidt-Weber C B, Töröcsik D, Eyerich S. Sebocytes contribute to skin inflammation by promoting the differentiation of T helper 17 cells. Br J Dermatol. 2018 March; 178(3):722-730. doi: 10.1111/bjd.15879. Epub 2018 Jan. 9. PMID: 28799643). The overproduction of sebum, proinflammatory chemokines and cytokines released from sebocytes all contribute to the formation of comedones on the skin. Both OTC and NB were studied as well as AP to investigate the efficacy of these products. […]

Fox-01 = test: FOX-01 expression in human primary sebocytes; type: cell-based; details: 100 ug/mL
Procedure: as §1, §2

Interleukin-6 (IL-6) = test: Interleukin-6 expression in keratinocytes; type: cell-based, human; details: 24-hour treatment, CBD isolate at same concentration as present in the invention
Procedure: as §1
Interleukin-6 (IL-6) is a well-established marker for inflammation. Largely produced in the skin by keratinocytes, its production leads to the activation of the STAT3 pathway which has been linked to the pathogenesis of many inflammatory skin diseases (Activation of Janus kinase signaling pathway in acne lesions, Sara Mohamed Awad, Yasmin Mostafa Tawfik, Mohamed Ahmed El-Mokhtar, Amira F. El-Gazzar, Amira Ali Abdel Motaleb First published: 19 Nov. 2020 https://doi.org/10.1111/dth.14563). In addition, IL-6 exerts stimulatory effects on T-cells and B-cells, thus favoring chronic inflammatory responses. (Gabay C. Interleukin-6 and chronic inflammation. Arthritis Res Ther. 2006; 8 Suppl 2(Suppl 2):S3. doi:10.1186/ar1917). […] That is, the compositions work better to reduce expression of IL-6 than the individual ingredients, namely CBD alone.

C=C(C)[C@@H]1CCC(C)=C[C@H]1c1c(O)cc(CCCCC)cc1O [CBD isolate, Cannabidiol]
lowered production of TNF-α [1]: 14.0%
increase of Fox-01 expression (Fox-01): 50.8%
reduction of expression of IL-6 (Interleukin-6 (IL-6)): 6.0%
